Assay results taken from PMC9688344, “[^225Ac]Ac-SibuDAB for Targeted Alpha Therapy of Prostate Cancer: Preclinical Evaluation and Comparison with [^225Ac]Ac-PSMA-617” (Cancers, 2022).

Test system: immunocompetent FVB mice
Experiment: Tolerability study in immunocompetent mice
Assay type: in vivo
Excerpt: Five- to six-week-old immunocompetent, female FVB mice were purchased from Charles River Laboratories (Sulzfeld, Germany). After an acclimatization period of at least 7 days, the mice (n = 5 per group) were intravenously injected with 30 kBq [^225Ac]Ac-SibuDAB or 30 kBq [^225Ac]Ac-PSMA-617 and additional mice (n = 7 per group) remained untreated as controls. Mice were monitored by measuring their body mass and potential signs of pain or unease three times a week (Supplementary Material: Section S7). The mice were euthanized on Day 10, Day 28 or on Day 56, respectively, and variable parameters were assessed from blood and tissue samples.
Hematological analysis was performed using blood samples taken by cardiac puncture immediately after euthanasia. Blood and bone marrow smears were prepared and stained using the Pappenheim protocol. The assessment was carried out by a board-certified veterinary anatomic pathologist (AnaPath Services GmbH, Liestal, Switzerland). Blood plasma parameters were determined in plasma after centrifugation of blood samples obtained shortly before euthanasia (Supplementary Material: Section S7).
Tissue sections of formalin-fixed paraffin-embedded (FFPE) spleen, salivary glands and kidneys were prepared and stained with hematoxylin and eosin (H&E) by AnaPath Services GmbH (Liestal, Switzerland). The tissues were analyzed by a board certified veterinary pathologist using a pre-defined scoring system (Supplementary Material: Section S7). […]
The percentage of radioligand bound to mouse or human plasma (A bound) was plotted against the molar ratios of MSA/HSA to radioligand and fitted with a nonlinear regression curve (specific binding with Hill slope, Bmax set to 100%) using GraphPad Prism software (version 8) to obtain the half maximum binding (B 50).
Results: The results are reported in the main article.
Purpose: A tolerability study with normal, immunocompetent FVB mice was con-ducted in order to assess potential side effects to the bone marrow, spleen, salivary glands and kidneys after the application of high activities of the 225Ac-labeled PSMA radioligands.
Methods: Monitoring Body Mass and Signs of Unease: Mice were monitored by meas-uring their body mass (BM) three times a week. The body masses were expressed as the relative body mass, defined as [BMx/BM0], where BMx is the body mass in grams on a given Day x and BM0 is the body mass in grams on Day 0. Endpoint criteria, defined as (i) >15% loss in body mass, (ii) signs of unease and pain or a combination thereof based on a scoring system, were not reached in this stu dy.
Hematology: Blood cell counts were determined in blood samples taken by cardiac puncture immediately after euthanasia and collected in EDTA tubes (Microvette® 100 K3 EDTA, Sarstedt, Germany). Leukocyte, lymphocyte, erythrocyte and thrombocyte counts as well as hemoglobin and hematocrit values were determined using a hematology ana-lyzer (VetScan HM5, Abaxis, United States). Blood smears were prepared on glass slides with cardiac blood. The bone marrow was collected from the femur, diluted in FCS/H2O (2:1 v/v) and smeared onto microscopy slides using a paintbrush. The slides were stained with a May Grünwald solution and subsequently with diluted Giemsa solution using the Pappenheim method and covered with coverslips using mounting medium (Pertex).
The assessment of potential morphological ch anges of the blood cells and counting of the subgroups of leukocytes was performed by a board-certified veterinary pathologist (Ana-Path Services GmbH, Liestal, Switzerland).
Histopathological Analysis: Spleen, salivary glands and kidneys were formalin-fixed and paraffin-embedded. Tissue sections were stained with hematoxylin & eosin (H&E) […]
Blood Plasma Parameters: Blood plasma parameters were determined in plasma ob-tained from centrifuged retrobulbar blood samples collected in lithium-heparin tubes (Mi-crovette® 200 LH, SARSTEDT). The concentrations of blood urea nitrogen (BUN), alkaline […]

SMILES: O=C([O-])CN1CCN(CC(=O)[O-])CCN(CC(=O)NCC2CCC(C(=O)NC(Cc3ccc4ccccc4c3)C(=O)NCCCCC(NC(=O)NC(CCC(=O)O)C(=O)O)C(=O)O)CC2)CCN(CC(=O)[O-])CC1.[225Ac+3] (stereo not shown) [[^225Ac]Ac-PSMA-617]
- Tolerability (body mass) (30 kBq per mouse, until Day 56): well tolerated
- Kidneys: Hyperplasia/hypertrophy, tubular, incidence (Day 10, 30 kBq): 2
- Kidneys: Hyperplasia/hypertrophy, tubular, score average (Day 10, 30 kBq): 1.0
- Kidneys: Hypertrophy/hyperplasia, tubular with ectasia, incidence (Day 10, 30 kBq): 0
- Kidneys: Hypertrophy/hyperplasia, tubular with ectasia, score average (Day 10, 30 kBq): 0.0
- Kidneys: Inflammatory cells, interstitium, incidence (Day 10, 30 kBq): 0
- Kidneys: Inflammatory cells, interstitium, score average (Day 10, 30 kBq): 0.0
- Kidneys: Inflammatory cells, pelvis, incidence (Day 10, 30 kBq): 0
- Kidneys: Inflammatory cells, pelvis, score average (Day 10, 30 kBq): 0.0
- Kidneys: Mineralization, papilla, incidence (Day 10, 30 kBq): 0
- Kidneys: Mineralization, papilla, score average (Day 10, 30 kBq): 0.0
- Kidneys: Tubular basophilia, incidence (Day 10, 30 kBq): 0
- Kidneys: Tubular basophilia, score average (Day 10, 30 kBq): 0.0
- Salivary glands: Ductal hyperplasia with inflammatory cells, incidence (Day 10, 30 kBq): 0
- Salivary glands: Ductal hyperplasia with inflammatory cells, score average (Day 10, 30 kBq): 0.0
- Salivary glands: Hypertrophy acinar, sublingual, incidence (Day 10, 30 kBq): 0
- Salivary glands: Hypertrophy acinar, sublingual, score average (Day 10, 30 kBq): 0.0
- Salivary glands: Mononuclear cell foci, incidence (Day 10, 30 kBq): 1
- Salivary glands: Mononuclear cell foci, score average (Day 10, 30 kBq): 1.0
- Salivary glands: Necrosis, multifocal, serous acinar cells, incidence (Day 10, 30 kBq): two out of five
- Salivary glands: Necrosis, multifocal, serous acinar cells, score average (Day 10, 30 kBq): 1.0
- Salivary glands: Vacuolation, incidence (Day 10, 30 kBq): 0
- Salivary glands: Vacuolation, score average (Day 10, 30 kBq): 0.0
- Spleen: Extramedullary hematopoiesis, incidence (Day 10, 30 kBq): 5
- Spleen: Extramedullary hematopoiesis, score average (Day 10, 30 kBq): 1.0
- Spleen: Hyperplasia, lymphoid, incidence (Day 10, 30 kBq): 1
- Spleen: Hyperplasia, lymphoid, score average (Day 10, 30 kBq): 1.0
- Spleen: Pigment, incidence (Day 10, 30 kBq): 5
- Spleen: Pigment, score average (Day 10, 30 kBq): 1.0
- mice with relative increase of neutrophilic blasts (metamyelocytes) in peripheral blood (Day 10, 30 kBq): two out of five
- myelopoiesis in bone marrow smears (group value) (Day 10, 30 kBq): 62%
- Salivary glands: Necrosis, multifocal, serous acinar cells, incidence (Day 10, 30 kBq, listed as [225Ac]Ac-PSMA-617): 2
- Blood smear, Notes (Day 10, mouse M1): More neutrophilic blasts (Metamyelocyte)
- Bone marrow % E (Day 10, mouse M1): 50%
- Bone marrow % M (Day 10, mouse M1): 50%
- Blood smear, Notes (Day 10, mouse M2): More neutrophilic blasts (Metamyelocyte)
- Bone marrow % E (Day 10, mouse M2): 60%
- Bone marrow % M (Day 10, mouse M2): 40%
- Bone marrow % E (Day 10, mouse M3): 20%
- Bone marrow % M (Day 10, mouse M3): 80%
- Bone marrow smear, Notes (Day 10, mouse M3): More blasts, neutrophilic row
- Bone marrow % E (Day 10, mouse M4): 30%
- Bone marrow % M (Day 10, mouse M4): 70%
- Bone marrow smear, Notes (Day 10, mouse M4): More blasts, neutrophilic row
- Bone marrow % E (Day 10, mouse M5): 30%
- Bone marrow % M (Day 10, mouse M5): 70%
- Bone marrow smear, Notes (Day 10, mouse M5): More blasts, neutrophilic row
- Albumin concentration in blood plasma (Day 28, 30 kBq): 23 g/L
- Blood urea nitrogen (Day 28, 30 kBq): 8.7 ± 1.1 mmol/L
- Erythrocyte counts (Day 28, 30 kBq): 8.7 ± 0.3 × 10^12/L
- Hematocrit (Day 28, 30 kBq): 43 ± 3%
- Hemoglobin (Day 28, 30 kBq): 11.3 ± 0.5 g/dL
- Kidneys: Hyperplasia/hypertrophy, tubular, incidence (Day 28, 30 kBq): 1
- Kidneys: Hyperplasia/hypertrophy, tubular, score average (Day 28, 30 kBq): 1.0
- Kidneys: Hypertrophy/hyperplasia, tubular with ectasia, incidence (Day 28, 30 kBq): 0
- Kidneys: Hypertrophy/hyperplasia, tubular with ectasia, score average (Day 28, 30 kBq): 0.0
- Kidneys: Inflammatory cells, interstitium, incidence (Day 28, 30 kBq): 0
- Kidneys: Inflammatory cells, interstitium, score average (Day 28, 30 kBq): 0.0
- Kidneys: Inflammatory cells, pelvis, incidence (Day 28, 30 kBq): 0
- Kidneys: Inflammatory cells, pelvis, score average (Day 28, 30 kBq): 0.0
- Kidneys: Mineralization, papilla, incidence (Day 28, 30 kBq): 1
- Kidneys: Mineralization, papilla, score average (Day 28, 30 kBq): 1.0
- Kidneys: Tubular basophilia, incidence (Day 28, 30 kBq): 1
- Kidneys: Tubular basophilia, score average (Day 28, 30 kBq): 1.0
- Salivary glands: Ductal hyperplasia with inflammatory cells, incidence (Day 28, 30 kBq): 0
- Salivary glands: Ductal hyperplasia with inflammatory cells, score average (Day 28, 30 kBq): 0.0
- Salivary glands: Hypertrophy acinar, sublingual, incidence (Day 28, 30 kBq): 0
- Salivary glands: Hypertrophy acinar, sublingual, score average (Day 28, 30 kBq): 0.0
- Salivary glands: Mononuclear cell foci, incidence (Day 28, 30 kBq): 1
- Salivary glands: Mononuclear cell foci, score average (Day 28, 30 kBq): 1.0
- Salivary glands: Necrosis, multifocal, serous acinar cells, incidence (Day 28, 30 kBq): all five
- Salivary glands: Necrosis, multifocal, serous acinar cells, score average (Day 28, 30 kBq): 1.8
- Salivary glands: Vacuolation, incidence (Day 28, 30 kBq): 0
- Salivary glands: Vacuolation, score average (Day 28, 30 kBq): 0.0
- Spleen: Extramedullary hematopoiesis, incidence (Day 28, 30 kBq): 5
- Spleen: Extramedullary hematopoiesis, score average (Day 28, 30 kBq): 1.8
- Spleen: Hyperplasia, lymphoid, incidence (Day 28, 30 kBq): 5
- Spleen: Hyperplasia, lymphoid, score average (Day 28, 30 kBq): 1.0
- Spleen: Pigment, incidence (Day 28, 30 kBq): 5
- Spleen: Pigment, score average (Day 28, 30 kBq): 1.8
- Salivary glands: Necrosis, multifocal, serous acinar cells, incidence (Day 28, 30 kBq, listed as [225Ac]Ac-PSMA-617): 5
- Bone marrow % E (Day 28, mouse M1): 50%
- Bone marrow % M (Day 28, mouse M1): 50%
- Bone marrow % E (Day 28, mouse M2): 40%
- Bone marrow % M (Day 28, mouse M2): 60%
- Bone marrow % E (Day 28, mouse M3): 40%
- Bone marrow % M (Day 28, mouse M3): 60%
- Bone marrow % E (Day 28, mouse M4): 50%
- Bone marrow % M (Day 28, mouse M4): 50%
- Bone marrow % E (Day 28, mouse M5): 40%
- Bone marrow % M (Day 28, mouse M5): 60%
- Kidneys: Hyperplasia/hypertrophy, tubular, incidence (Day 56, 30 kBq): 1
- Kidneys: Hyperplasia/hypertrophy, tubular, score average (Day 56, 30 kBq): 1.0
- Kidneys: Hypertrophy/hyperplasia, tubular with ectasia, incidence (Day 56, 30 kBq): 0
- Kidneys: Hypertrophy/hyperplasia, tubular with ectasia, score average (Day 56, 30 kBq): 0.0
- Kidneys: Inflammatory cells, interstitium, incidence (Day 56, 30 kBq): 0
- Kidneys: Inflammatory cells, interstitium, score average (Day 56, 30 kBq): 0.0
- Kidneys: Inflammatory cells, pelvis, incidence (Day 56, 30 kBq): 0
- Kidneys: Inflammatory cells, pelvis, score average (Day 56, 30 kBq): 0.0
- Kidneys: Mineralization, papilla, incidence (Day 56, 30 kBq): 0
- Kidneys: Mineralization, papilla, score average (Day 56, 30 kBq): 0.0
- Kidneys: Tubular basophilia, incidence (Day 56, 30 kBq): 1
- Kidneys: Tubular basophilia, score average (Day 56, 30 kBq): 1.0
- Salivary glands: Ductal hyperplasia with inflammatory cells, incidence (Day 56, 30 kBq): 0
- Salivary glands: Ductal hyperplasia with inflammatory cells, score average (Day 56, 30 kBq): 0.0
- Salivary glands: Hypertrophy acinar, sublingual, incidence (Day 56, 30 kBq): 0
- Salivary glands: Hypertrophy acinar, sublingual, score average (Day 56, 30 kBq): 0.0
- Salivary glands: Mononuclear cell foci, incidence (Day 56, 30 kBq): 2
- Salivary glands: Mononuclear cell foci, score average (Day 56, 30 kBq): 1.0
- Salivary glands: Necrosis, multifocal, serous acinar cells, incidence (Day 56, 30 kBq): 0
- Salivary glands: Necrosis, multifocal, serous acinar cells, score average (Day 56, 30 kBq): 0.0
- Salivary glands: Vacuolation, incidence (Day 56, 30 kBq): 0
- Salivary glands: Vacuolation, score average (Day 56, 30 kBq): 0.0
- Spleen: Extramedullary hematopoiesis, incidence (Day 56, 30 kBq): 5
- Spleen: Extramedullary hematopoiesis, score average (Day 56, 30 kBq): 1.4
- Spleen: Hyperplasia, lymphoid, incidence (Day 56, 30 kBq): 0
- Spleen: Hyperplasia, lymphoid, score average (Day 56, 30 kBq): 0.0
- Spleen: Pigment, incidence (Day 56, 30 kBq): 5
- Spleen: Pigment, score average (Day 56, 30 kBq): 2.0
- Bone marrow % E (Day 56, mouse M1): 30%
- Bone marrow % M (Day 56, mouse M1): 70%
- Bone marrow % E (Day 56, mouse M2): 40%
- Bone marrow % M (Day 56, mouse M2): 60%
- Bone marrow % E (Day 56, mouse M3): 30%
- Bone marrow % M (Day 56, mouse M3): 70%
- Bone marrow % E (Day 56, mouse M4): 40%
- Bone marrow % M (Day 56, mouse M4): 60%
